Data from patent US10407409B2, “6-(5-hydroxy-1H-pyrazol-1-yl)nicotinamide inhibitors of PHD” (Takeda Pharmaceutical Company Limited, priority 2013, dated 2019).

Legend:
[1] = tested on: HIF1a protein in H9c2 rat cardiomyocytes; test: Cell-based HIF-alpha stabilization assay (inhibition of PHD in cells); conditions: Rattus norvegicus, H9c2, 24 h, 24 hrs compound incubation, HIF1a protein by ELISA, read-out: Inhibition of PHD in cells (pEC50) (converted)
Summary of the method: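 Rat H9c2 cardiomyocytes, cultured 24 h, were treated 24 h with an 11-point serial dilution of compound. HIF1a in whole-cell lysates was quantified by ELISA as % of the maximal desferrioxamine response. EC50 came from curve fitting; EC50pos is the concentration reaching 50% of the desferrioxamine maximum.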

[2] = biological target: PHD2 enzyme (residues 181-417) (Homo sapiens (Human), UniProt Q9GZT9); test: Inhibition of PHD enzyme (LC/MS peptide hydroxylation assay); format: biochemical; conditions: PHD2 (residues 181-417) 5 nM, 60 min pre-incubation; -log(IC50), IC50 molar
Chain of PHD2 enzyme (residues 181-417) (Q9GZT9 181-417): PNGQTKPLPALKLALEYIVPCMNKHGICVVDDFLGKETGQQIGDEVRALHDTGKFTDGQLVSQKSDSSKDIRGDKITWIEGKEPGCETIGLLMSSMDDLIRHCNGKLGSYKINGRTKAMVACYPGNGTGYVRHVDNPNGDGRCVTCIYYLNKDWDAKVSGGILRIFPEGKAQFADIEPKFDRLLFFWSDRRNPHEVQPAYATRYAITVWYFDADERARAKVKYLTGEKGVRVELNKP
Summary of the method: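 PHD2 (5 nM final) preincubated with inhibitor 60 min at RT in 50 mM HEPES, 50 mM KCl, 0.5 mM TCEP, 2 uM FeCl2, 0.1 mg/ml BSA, pH 7.3. Reaction started with biotin-peptide (1 uM), 2-oxoglutarate (2 uM), ascorbate (1 mM), quenched at 60 min; hydroxylated product by LC/MS, reported as pIC50.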

| SMILES | EC50 [1] | PHD Inhibition (pIC50) [2] |
| --- | --- | --- |
| CN1CCC2(CCN(C(=O)c3ccc(-n4ncc(-c5ccc(C#N)cc5)c4O)nc3)C2)C1 (stereo not shown) [Example 350, 4-(5-hydroxy-1-(5-(7-methyl-2,7-diazaspiro[4.4]nonane-2-carbonyl)pyridin-2-yl)-1H-pyrazol-4-yl)benzonitrile] | 3.31 µM | 7.26 |
| N#Cc1ccc(-c2cnn(-c3ccc(C(=O)N4CCC(N5CCOCC5)C4)cn3)c2O)cc1 (stereo not shown) [Example 351, 4-(5-hydroxy-1-(5-(3-morpholinopyrrolidine-1-carbonyl)pyridin-2-yl)-1H-pyrazol-4-yl)benzonitrile] | 5.37 µM | 7.67 |
| N#Cc1ccc(-c2cnn(-c3ccc(C(=O)N4CCC[C@H]4CN4CCCC4)cn3)c2O)cc1 [Example 352, (S)-4-(5-hydroxy-1-(5-(2-(pyrrolidin-1-ylmethyl)pyrrolidine-1-carbonyl)pyridin-2-yl)-1H-pyrazol-4-yl)benzonitrile] | 3.47 µM | 7.47 |
| CN(C)CC1CCN(C(=O)c2ccc(-n3ncc(-c4ccc(C#N)cc4)c3O)nc2)C1 (stereo not shown) [Example 353, 4-(1-(5-(3-((dimethylamino)methyl)pyrrolidine-1-carbonyl)pyridin-2-yl)-5-hydroxy-1H-pyrazol-4-yl)benzonitrile] | 3.55 µM | 7.25 |
| COCCC1(NC(=O)c2ccc(-n3ncc(-c4ccc(C#N)cc4)c3O)nc2)CCCC1 [Example 354, 6-(4-(4-cyanophenyl)-5-hydroxy-1H-pyrazol-1-yl)-N-(1-(2-methoxyethyl)cyclopentyl)nicotinamide] | 1.58 µM | 8.36 |
| CCN1CCCC1CN(C)C(=O)c1ccc(-n2ncc(-c3ccc(C#N)cc3C)c2O)nc1 (stereo not shown) [Example 355, 6-(4-(4-cyano-2-methylphenyl)-5-hydroxy-1H-pyrazol-1-yl)-N-((1-ethylpyrrolidin-2-yl)methyl)-N-methylnicotinamide] | 0.724 µM | 7.94 |
| COCCC1(NC(=O)c2ccc(-n3ncc(-c4ccc(C#N)cc4C)c3O)nc2)CCCC1 [Example 356] | 0.977 µM | 8.16 |
| COCC[C@@H](C)NC(=O)c1ccc(-n2ncc(-c3ccc(C#N)cc3)c2O)nc1 [Example 357, (R)-6-(4-(4-cyanophenyl)-5-hydroxy-1H-pyrazol-1-yl)-N-(4-methoxybutan-2-yl)nicotinamide] | 2.4 µM | 8.46 |
| COCC[C@H](C)NC(=O)c1ccc(-n2ncc(-c3ccc(C#N)cc3)c2O)nc1 [Example 358, (S)-6-(4-(4-cyanophenyl)-5-hydroxy-1H-pyrazol-1-yl)-N-(4-methoxybutan-2-yl)nicotinamide] | 1.15 µM | 8.75 |
| COCC[C@@H](C)NC(=O)c1ccc(-n2ncc(-c3ccc(C#N)cc3C)c2O)nc1 [Example 359, (R)-6-(4-(4-cyano-2-methylphenyl)-5-hydroxy-1H-pyrazol-1-yl)-N-(4-methoxybutan-2-yl)nicotinamide] | 0.537 µM | 8.45 |
| COCC[C@H](C)NC(=O)c1ccc(-n2ncc(-c3ccc(C#N)cc3C)c2O)nc1 [Example 360, (S)-6-(4-(4-cyano-2-methylphenyl)-5-hydroxy-1H-pyrazol-1-yl)-N-(4-methoxybutan-2-yl)nicotinamide] | 0.407 µM | 8.60 |
| Cc1cc(C#N)ccc1-c1cnn(-c2ccc(C(=O)N(C)CC3CCCN(C)C3)cn2)c1O (stereo not shown) [Example 361, 6-(4-(4-cyano-2-methylphenyl)-5-hydroxy-1H-pyrazol-1-yl)-N-methyl-N-((1-methylpiperidin-3-yl)methyl)nicotinamide] | 0.457 µM | 7.76 |
| Cc1cc(C#N)ccc1-c1cnn(-c2ccc(C(=O)N(C)CC3CCN(C(C)C)C3)cn2)c1O (stereo not shown) [Example 362, 6-(4-(4-cyano-2-methylphenyl)-5-hydroxy-1H-pyrazol-1-yl)-N-((1-isopropylpyrrolidin-3-yl)methyl)-N-methylnicotinamide] | 0.525 µM | 7.80 |
| CCN1CCCC1CN(C)C(=O)c1ccc(-n2ncc(-c3ccc(C#N)cc3)c2O)nc1 (stereo not shown) [Example 363, 6-(4-(4-cyanophenyl)-5-hydroxy-1H-pyrazol-1-yl)-N-((1-ethylpyrrolidin-2-yl)methyl)-N-methylnicotinamide] | 2.09 µM | 7.28 |
| N#Cc1ccc(-c2cnn(-c3ccc(C(=O)N4CCC[C@@H]4CN4CCCC4)cn3)c2O)cc1 [Example 364, (R)-4-(5-hydroxy-1-(5-(2-(pyrrolidin-1-ylmethyl)pyrrolidine-1-carbonyl)pyridin-2-yl)-1H-pyrazol-4-yl)benzonitrile] | 7.76 µM | 6.73 |
| Cc1cc(C#N)ccc1-c1cnn(-c2ccc(C(=O)N3CCC[C@@H]3CN3CCCC3)cn2)c1O [Example 365, (R)-4-(5-hydroxy-1-(5-(2-(pyrrolidin-1-ylmethyl)pyrrolidine-1-carbonyl)pyridin-2-yl)-1H-pyrazol-4-yl)-3-methylbenzonitrile] | 0.417 µM | 7.80 |
| Cc1cc(C#N)ccc1-c1cnn(-c2ccc(C(=O)N(C)C3CCN(C)C3)cn2)c1O (stereo not shown) [Example 368, 6-(4-(4-cyano-2-methylphenyl)-5-hydroxy-1H-pyrazol-1-yl)-N-methyl-N-(1-methylpyrrolidin-3-yl)nicotinamide] | 0.575 µM | 7.89 |
| CCC(CC)N1CCN(C(=O)c2ccc(-n3ncc(-c4ccc(C#N)cc4C)c3O)nc2)CC1 [Example 369, 4-(5-hydroxy-1-(5-(4-(pentan-3-yl)piperazine-1-carbonyl)pyridin-2-yl)-1H-pyrazol-4-yl)-3-methylbenzonitrile] | 1.2 µM | 7.701 |
| CCN1CCN(C(=O)c2ccc(-n3ncc(-c4ccc(C#N)cc4C)c3O)nc2)C[C@@H]1C [Example 370, (S)-4-(1-(5-(4-ethyl-3-methylpiperazine-1-carbonyl)pyridin-2-yl)-5-hydroxy-1H-pyrazol-4-yl)-3-methylbenzonitrile] | 0.562 µM | 8.287 |
| CO[C@H](C)CCNC(=O)c1ccc(-n2ncc(-c3ccc(C#N)cc3C)c2O)nc1 [Example 371, (R)-6-(4-(4-cyano-2-methylphenyl)-5-hydroxy-1H-pyrazol-1-yl)-N-(3-methoxybutyl)nicotinamide] | 0.832 µM | 8.20 |
| Cc1cc(C#N)ccc1-c1cnn(-c2ccc(C(=O)N3CCN(C)[C@@H](C)C3)cn2)c1O [Example 372, (S)-4-(1-(5-(3,4-dimethylpiperazine-1-carbonyl)pyridin-2-yl)-5-hydroxy-1H-pyrazol-4-yl)-3-methylbenzonitrile] | 0.832 µM | 8.26 |
| Cc1cc(C#N)ccc1-c1cnn(-c2ccc(C(=O)N3CCN(C4CCC4)CC3)cn2)c1O [Example 373, 4-(1-(5-(4-cyclobutylpiperazine-1-carbonyl)pyridin-2-yl)-5-hydroxy-1H-pyrazol-4-yl)-3-methylbenzonitrile] | 1.2 µM | 8.00 |
| Cc1cc(C#N)ccc1-c1cnn(-c2ccc(C(=O)N3CCN(C4CC4)[C@H](C)C3)cn2)c1O [Example 375, (R)-4-(1-(5-(4-cyclopropyl-3-methylpiperazine-1-carbonyl)pyridin-2-yl)-5-hydroxy-1H-pyrazol-4-yl)-3-methylbenzonitrile] | 1 µM | 8.06 |
| Cc1cc(C#N)ccc1-c1cnn(-c2ccc(C(=O)N3CCC[C@H](N(C)C)C3)cn2)c1O [Example 376, (S)-4-(1-(5-(3-(dimethylamino)piperidine-1-carbonyl)pyridin-2-yl)-5-hydroxy-1H-pyrazol-4-yl)-3-methylbenzonitrile] | 0.891 µM | 7.61 |
| Cc1cc(C#N)ccc1-c1cnn(-c2ccc(C(=O)N3CCN(C)C(C)(C)C3)cn2)c1O [Example 377, 4-(5-hydroxy-1-(5-(3,3,4-trimethylpiperazine-1-carbonyl)pyridin-2-yl)-1H-pyrazol-4-yl)-3-methylbenzonitrile] | 0.813 µM | 8.44 |
| CCN1CCN(C(=O)c2ccc(-n3ncc(-c4ccc(C#N)cc4C)c3O)nc2)CC1(C)C [Example 378, 4-(1-(5-(4-ethyl-3,3-dimethylpiperazine-1-carbonyl)pyridin-2-yl)-5-hydroxy-1H-pyrazol-4-yl)-3-methylbenzonitrile] | 1.29 µM | 8.21 |
| Cc1cc(C#N)ccc1-c1cnn(-c2ccc(C(=O)N3CCN(C(C)C)[C@H](C)C3)cn2)c1O [Example 379, (R)-4-(5-hydroxy-1-(5-(4-isopropyl-3-methylpiperazine-1-carbonyl)pyridin-2-yl)-1H-pyrazol-4-yl)-3-methylbenzonitrile] | 0.794 µM | 8.20 |
| CCN(CC)C1CCCN(C(=O)c2ccc(-n3ncc(-c4ccc(C#N)cc4C)c3O)nc2)C1 (stereo not shown) [Example 380, 4-(1-(5-(3-(diethylamino)piperidine-1-carbonyl)pyridin-2-yl)-5-hydroxy-1H-pyrazol-4-yl)-3-methylbenzonitrile] | 0.575 µM | 8.17 |
| Cc1cc(C#N)ccc1-c1cnn(-c2ccc(C(=O)N3CCC[C@H](N4CCCC4)C3)cn2)c1O [Example 381, (S)-4-(5-hydroxy-1-(5-(3-(pyrrolidin-1-yl)piperidine-1-carbonyl)pyridin-2-yl)-1H-pyrazol-4-yl)-3-methylbenzonitrile] | 1.07 µM | 7.94 |
